Assays:
[1] = test system: human NSCLC cell line NCI-H1792; test: IL-6 secretion by NCI-H1792 cells incubated with NSP10-derived peptides (ELISA); type: cell-based; conditions: peptide 24 h
[2] = test system: human metastatic breast cancer cell line MDA-MB-231; test: IL-6 secretion by MDA-MB-231 cells (P1 stimulation, plantakine pre-incubation; ELISA); type: cell-based
Description: IL-6 secretion by the human metastatic breast cancer cell line MDA-MB-231 into the conditioned media was measured by ELISA. The cells were pre-incubated for 3 h in the presence of plant-produced recombinant IL-38 or IL-37b at the indicated concentrations (ng/ml) prior to stimulation with peptide P1 (10 mM). PBS (1×) was added to the control. Shown are the average results of 3 independent experiments. ** P<0.01; * P<0.05, compared with the control.
Correct folding of plant-produced IL-38 and IL-37b anti-inflammatory cytokines was assessed by enzyme-linked immunosorbent assay (ELISA) using the DuoSet Human IL-38/IL-1F10 kit (R&D systems) and the Human IL-37/IL-1F7 uncoated ELISA kit (Invitrogen), respectively, following the instructions of the manufacturers. Secreted IL-6 was assessed using the Human IL-6 Uncoated ELISA kit (Invitrogen).

in vitro = conditions: human
SARS-COV-2 = type: cell-based; conditions: at 200 µM concentration
[3] = test system: human NSCLC cell line NCI-H1792; test: Attenuation of P1-induced IL-6 secretion in NCI-H1792 cells by pre-treatment with plant-produced cytokines (ELISA); type: cell-based; conditions: control protein bearing an identical His-tag

Row | Molecule | CC50 (in vitro) | stimulation / induction of IL-6 secretion (in words) [1] | further results
1 | CC[C@H](C)[C@H](NC(=O)[C@H](Cc1c[nH]cn1)NC(=O)[C@H](CS)NC(=O)[C@H](CCCNC(=N)N)NC(=O)[C@H](CS)NC(=O)[C@H](Cc1ccc(O)cc1)NC(=O)[C@H](CC(C)C)NC(=O)[C@H](CS)NC(=O)[C@H](CS)NC(=O)[C@H](CO)NC(=O)[C@H](C)NC(=O)CNC(=O)CNC(=O)[C@H](Cc1ccccc1)NC(=O)CNC(=O)[C@H](CO)NC(=O)CNC(=O)[C@H](CCCNC(=N)N)NC(=O)[C@H](CCCNC(=N)N)NC(=O)[C@H](CCCNC(=N)N)NC(=O)[C@H](CCC(N)=O)NC(=O)[C@H](CCCNC(=N)N)NC(=O)[C@H](CCCNC(=N)N)NC(=O)[C@H](CCCCN)NC(=O)[C@H](CCCCN)NC(=O)[C@H](CCCNC(=N)N)NC(=O)CNC(=O)[C@H](Cc1ccc(O)cc1)NC(C)=O)C(=O)N[C@@H](CC(=O)O)C(=O)N[C@@H](Cc1c[nH]cn1)C(=O)N1CCC[C@H]1C(=O)N[C@@H](CC(N)=O)C(=O)N1CCC[C@H]1C(=O)N[C@@H](CCCCN)C(=O)NCC(=O)N[C@@H](Cc1ccccc1)C(=O)N[C@@H](CS)C(=O)N[C@@H](CC(=O)O)C(=O)N[C@@H](CC(C)C)C(=O)N[C@@H](CCCCN)C(=O)NCC(=O)N[C@@H](CCCCN)C(=O)N[C@@H](Cc1ccc(O)cc1)C(N)=O [P1] | 11 µM | – | stimulation of the intrinsic secretion of IL-6 ([1]; normalized to PBS control): > 4 fold; IL-6 secretion on treatment with peptide (in words) [2]: strongly increased
2 | CC[C@H](C)[C@H](NC(=O)[C@H](CCCNC(=N)N)NC(=O)[C@H](CS)NC(=O)[C@H](CCCNC(=N)N)NC(=O)[C@H](CS)NC(=O)[C@H](Cc1ccc(O)cc1)NC(=O)[C@H](CC(C)C)NC(=O)[C@H](CS)NC(=O)[C@H](CS)NC(=O)[C@H](CO)NC(=O)[C@H](C)NC(=O)CNC(=O)CNC(=O)[C@H](Cc1ccccc1)NC(=O)CNC(=O)[C@H](CO)NC(=O)CNC(=O)[C@H](CCCNC(=N)N)NC(=O)[C@H](CCCNC(=N)N)NC(=O)[C@H](CCCNC(=N)N)NC(=O)[C@H](CCC(N)=O)NC(=O)[C@H](CCCNC(=N)N)NC(=O)[C@H](CCCNC(=N)N)NC(=O)[C@H](CCCCN)NC(=O)[C@H](CCCCN)NC(=O)[C@H](CCCNC(=N)N)NC(=O)CNC(=O)[C@H](Cc1ccc(O)cc1)NC(C)=O)C(=O)N[C@@H](CC(=O)O)C(=O)N[C@@H](Cc1c[nH]cn1)C(=O)N1CCC[C@H]1C(=O)N[C@@H](CC(N)=O)C(=O)N1CCC[C@H]1C(=O)N[C@@H](CCCCN)C(=O)NCC(=O)N[C@@H](Cc1ccccc1)C(=O)N[C@@H](CS)C(=O)N[C@@H](CC(=O)O)C(=O)N[C@@H](CC(C)C)C(=O)N[C@@H](CCCCN)C(=O)NCC(=O)N[C@@H](CCCCN)C(=O)N[C@@H](Cc1ccc(O)cc1)C(N)=O [P2] | > 200 µM | no IL-6 induction | effect against the virus-infected cells (SARS-COV-2): no detectable effect
3 | GFP: His-tag containing plant-produced Green Fluorescent Protein used as control protein [reference compound] | – | – | attenuation of P1-induced IL-6 expression (in words) [3]: did not result in any significant attenuation
4 | YGRKKRRQRRRGSG (HIV-Tat peptide sequence) [TAT sequence peptide, 42, reference compound] | – | not | –

— patent US20250101446A1, “METHOD FOR GENETIC TRANSFORMATION OF PLANT ORGANELLE GENOME AND USES THEREOF” (Solar Grants Biotechnology Inc., priority 2022, published 2025)
